Laboratory results as given in US5919761A, “Peptides for heparin and low molecular weight heparin anticoagulation reversal” (The Board of Regents of the University of Michigan, priority 1995, dated 1999).
Peptide text beside a SMILES is read from it.

Assays:
LMWH (LHN-1, Logiparin) [1] = test: Percent reversal of LMWH anticoagulation, agents administered at different rates, canine study; type: in vivo, dogs
Experimental: Anticoagulation reversal was assessed by a number of standard coagulation tests performed upon samples of venous blood in the manner described hereinabove. Measurements were made 3 minutes prior to heparin reversal (baseline) and 3 minutes, 10 minutes, and 30 minutes post-administration of the heparin reversal agent.

[2] = Platelet count, leukocyte count and bleeding time after LMWH reversal at different rates, canine study; type: in vivo, dogs; conditions: dogs, Logiparin; administered over 10 sec
Experimental: (§1) The anticoagulation-reversing agents were administered rapidly over 10 seconds to maximize hemodynamic effects or more slowly over a 3 minute interval. Changes in LMWH anticoagulation occurring from metabolism alone were determined in a separate group of dogs not given any reversal agent.

[3] = Platelet and white blood cell count after LMWH reversal, canine study; type: in vivo; conditions: dogs, Logiparin
Experimental: In addition to the measurements reported on Table 6, studies were conducted to measure the activated partial thromboplastin time (aPTT), platelet count, and white blood cell count. […] However, the [+18B] variant produced greater aPTT reversal than protamine at the 3, 10 and 30 minute measurements (64%, 95%, and 93%, respectively, as compared to 50%, 83%, and 78%, respectively, for protamine).

[4] = Hemodynamic studies and total toxicity score after LMWH reversal at different rates, canine study; conditions: dogs, Logiparin; administered over 10 sec
Experimental: as §1
(§2) Hemodynamic studies were conducted by measuring mean arterial pressure (MAP) in mm Mercury, maximum percent changes in cardiac output (CO) and systemic oxygen consumption (VO2), and heart rate (HR) in beats per minute. Measurements and calculations were made at baseline, before LMWH administration, 3 minutes before reversal, every 30 seconds for 5 minutes after reversal, and at 10, 20, and 30 minutes after reversal.
TTS were developed that reflected maximum declines in each of four parameters (MAP, CO, VO2 and HR) over the first 5 minutes after reversal in the same manner as described hereinabove.

[5] = Hemodynamic studies and total toxicity score after LMWH reversal, canine study; conditions: dogs
Experimental: as §2
Total toxicity scores (TTS) were developed that reflected maximum declines in each of four parameters (MAP, CO, VO2 and HR) over the first 5 minutes after reversal. The maximum changes occurring in an individual dog over the first 5 minutes were divided by the standard deviation derived from the entire group of tested animals and the four scores were added, resulting in a TTS for each individual dog. The TTS values for each dog were then summed to obtain an average TTS and SD for each peptide studied. The more negative the value of TTS, the more toxic the compound.

LMWH (LHN-1, Logiparin) [6] = test: Percent reversal of low molecular weight heparin anticoagulation, in vivo canine study, coagulation tests; set-up: species or system dogs; conditions: for aPTT reversal: Logiparin
Experimental: Anticoagulation reversal was assessed by a number of standard coagulation tests performed upon samples of venous blood: activated clotting time (ACT), heparin concentration by assay for FXa inhibitory activity (FXa), thrombin clotting time (TCT), and heparin concentration by assay for FIIa inhibitory activity (FIIa). Measurements were made 3 minutes prior to heparin reversal (baseline) and 3 minutes, 10 minutes, and 30 minutes post-administration of the heparin reversal agent. […] The coagulation data were corrected for naturally occurring metabolism.

[7] = administered over 10 sec, 3 min
[8] = administered over 10 sec, 10 min
[9] = administered over 10 sec, 30 min
[10] = Logiparin, maximum percent change

## CC(=O)N1CCC[C@H]1C(=O)N[C@@H](C)C(=O)N[C@@H](CCCCN)C(=O)N[C@@H](CCCCN)C(=O)N[C@@H](C)C(=O)N[C@@H](C)C(=O)N[C@@H](CCCCN)C(=O)N[C@@H](CCCCN)C(=O)N[C@@H](C)C(=O)N[C@@H](CCCCN)C(=O)N[C@@H](CCCCN)C(=O)N[C@@H](C)C(=O)N[C@@H](C)C(=O)N[C@@H](CCCCN)C(=O)N[C@@H](CCCCN)C(=O)N[C@@H](C)C(=O)N[C@@H](CCCCN)C(=O)N[C@@H](CCCCN)C(=O)N[C@@H](C)C(=O)N[C@@H](C)C(=O)N[C@@H](CCCCN)C(=O)N[C@@H](CCCCN)C(=O)N[C@@H](C)C(=O)N[C@@H](CCCCN)C(=O)N[C@@H](CCCCN)C(=O)N[C@@H](C)C(=O)N[C@@H](C)C(=O)N[C@@H](CCCCN)C(=O)N[C@@H](CCCCN)C(=O)N[C@@H](C)C(=O)N[C@@H](CCCCN)C(=O)N[C@@H](CCCCN)C(N)=O [[+18B], acetyl-PA(K2 A2 K2 A)4 K2 -amide] (Ac-PAKKAAKKAKKAAKKAKKAAKKAKKAAKKAKK-NH2)
LMWH (LHN-1, Logiparin) [1]; [7]
  Percent reversal of LMWH anticoagulation, FNa: 95%
  Percent reversal of LMWH anticoagulation, FXa: 64%
  Percent reversal of LMWH anticoagulation, TCT: 99%
LMWH (LHN-1, Logiparin) [1]; [8]
  Percent reversal of LMWH anticoagulation, ACT: 87%
  Percent reversal of LMWH anticoagulation, FNa: 72%
  Percent reversal of LMWH anticoagulation, FXa: 34%
  Percent reversal of LMWH anticoagulation, TCT: 95%
LMWH (LHN-1, Logiparin) [1]; [9]
  Percent reversal of LMWH anticoagulation, ACT: 98%
  Percent reversal of LMWH anticoagulation, FNa: 74%
  Percent reversal of LMWH anticoagulation, FXa: 52%
  Percent reversal of LMWH anticoagulation, TCT: 100%
LMWH (LHN-1, Logiparin) [1]; dogs, Logiparin, agent administered over 10 sec, 3 min post-administration
  Percent reversal of LMWH anticoagulation, ACT: 87%
[2]
  Maximal decline in leukocyte count: -21%
  Maximal thrombocytopenia: -56%
[3]
  decline in white blood cell count: greatest
  mean decline in platelet count: -56%
[4]
  Total Toxicity Score: -3.1 ± 1.5
  ΔCO: -18%
  ΔHr: -9 beats per minute
  ΔMAP: -10 mm Mercury
  ΔVO2: -12%
[5]; LMWH, 50% less dose (1:2 peptide to LMWH)
  Total Toxicity Score: about -1.62
[5]; Logiparin
  maximum mean increase in pulmonary artery diastolic (PAD) pressure: no increase
  maximum mean increase in pulmonary artery systolic (PAS) pressure: no increase
  ΔHR: -9 beats per minute
  ΔMAP: -10 mm Mercury
[5]; Logiparin, first 5 minutes after reversal, 1:1 peptide to LMWH
  Total Toxicity Score: -4.1 ± 1.6
[5]; [10]
  ΔCO: -18%
  ΔVO2: -12%
LMWH (LHN-1, Logiparin) [6]; dogs, 3 minute measurement
  aPTT reversal: 64%
LMWH (LHN-1, Logiparin) [6]; dogs, 10 minute measurement
  aPTT reversal: 95%
LMWH (LHN-1, Logiparin) [6]; dogs, 30 minute measurement
  aPTT reversal: 93%
LMWH (LHN-1, Logiparin) [6]; dogs, Logiparin 150 IU/kg, agent 1.5 mg/kg IV after 30 min, 3 min post-administration, corrected for metabolism
  Percent reversal of LMWH anticoagulation, ACT: 87%
LMWH (LHN-1, Logiparin) [6]; same study, 3 min
  Percent reversal of LMWH anticoagulation, FNa: 96%
  Percent reversal of LMWH anticoagulation, FXa: 64%
  Percent reversal of LMWH anticoagulation, TCT: 99%
LMWH (LHN-1, Logiparin) [6]; same study, 10 min
  Percent reversal of LMWH anticoagulation, ACT: 93%
  Percent reversal of LMWH anticoagulation, FNa: 72%
  Percent reversal of LMWH anticoagulation, FXa: 34%
  Percent reversal of LMWH anticoagulation, TCT: 95%
LMWH (LHN-1, Logiparin) [6]; same study, 30 min
  Percent reversal of LMWH anticoagulation, ACT: 102%
  Percent reversal of LMWH anticoagulation, FNa: 74%
  Percent reversal of LMWH anticoagulation, FXa: 52%
  Percent reversal of LMWH anticoagulation, TCT: 96%
